Experimental data as given in ChEMBL document CHEMBL1909046, “DrugMatrix in vitro pharmacology data”.

Key:
[1] = target: T1, Alpha-1D adrenergic receptor (Homo sapiens, UniProt P25100); format: cell membranes, HEK293, Membrane; further: in other assays of this panel Not Active means under 50% inhibition at 10 µM
T1 sequence (P25100 whole entry): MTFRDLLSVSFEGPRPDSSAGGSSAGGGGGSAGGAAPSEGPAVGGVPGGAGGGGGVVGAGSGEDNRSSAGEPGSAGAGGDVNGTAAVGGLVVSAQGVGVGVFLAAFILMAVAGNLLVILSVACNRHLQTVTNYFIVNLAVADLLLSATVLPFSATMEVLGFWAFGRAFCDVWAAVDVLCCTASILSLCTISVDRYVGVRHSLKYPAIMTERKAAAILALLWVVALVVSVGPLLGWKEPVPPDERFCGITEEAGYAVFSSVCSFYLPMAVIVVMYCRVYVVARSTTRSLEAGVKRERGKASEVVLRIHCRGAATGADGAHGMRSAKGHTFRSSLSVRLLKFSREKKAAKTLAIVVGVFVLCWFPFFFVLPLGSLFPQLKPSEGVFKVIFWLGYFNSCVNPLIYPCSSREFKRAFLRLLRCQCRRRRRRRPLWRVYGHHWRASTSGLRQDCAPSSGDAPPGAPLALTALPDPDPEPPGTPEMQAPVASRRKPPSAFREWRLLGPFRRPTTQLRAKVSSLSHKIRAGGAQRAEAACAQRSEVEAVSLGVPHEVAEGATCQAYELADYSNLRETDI

[2] = target: Beta-2 adrenergic receptor (Homo sapiens, UniProt P07550); assay: DRUGMATRIX: Adrenergic beta2 radioligand binding (ligand: [3H] CGP-12177); format: cell membranes, CHO, Membrane; details: Not Active = under 50% inhibition at 10 µM
Histamine H2 receptor = Histamine H2 receptor (Homo sapiens, UniProt P25021); format: cell membranes, CHO-K1, Membrane; further: in other assays of this panel Not Active means under 50% inhibition at 10 µM
[3] = target: T2, Muscarinic acetylcholine receptor M5 (Homo sapiens, UniProt P08912); format: cell membranes, CHO-K1, Membrane; details: cho-k1; further: in other assays of this panel Not Active means under 50% inhibition at 10 µM
T2 sequence (P08912 whole entry): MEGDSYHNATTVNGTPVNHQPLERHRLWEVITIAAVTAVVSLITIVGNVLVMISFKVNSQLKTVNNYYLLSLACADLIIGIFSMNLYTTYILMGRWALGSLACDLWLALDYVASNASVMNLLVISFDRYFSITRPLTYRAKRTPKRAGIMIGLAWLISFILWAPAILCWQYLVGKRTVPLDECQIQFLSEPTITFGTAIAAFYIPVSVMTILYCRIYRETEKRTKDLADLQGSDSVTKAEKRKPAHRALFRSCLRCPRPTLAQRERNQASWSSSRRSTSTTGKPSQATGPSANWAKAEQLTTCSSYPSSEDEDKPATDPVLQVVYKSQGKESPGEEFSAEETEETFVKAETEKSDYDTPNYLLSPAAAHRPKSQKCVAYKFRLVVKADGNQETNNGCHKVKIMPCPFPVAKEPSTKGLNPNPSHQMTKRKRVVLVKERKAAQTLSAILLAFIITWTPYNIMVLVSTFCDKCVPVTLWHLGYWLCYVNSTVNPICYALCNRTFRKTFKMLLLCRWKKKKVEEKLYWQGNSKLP

[4] = target: Tyrosine-protein kinase Lck (Homo sapiens, UniProt P06239); assay: DRUGMATRIX: Protein Tyrosine Kinase, LCK enzyme inhibition (substrate: Poly(Glu:Tyr)); format: cell-based, Insect cells; details: Not Active = under 50% inhibition at 10 µM
Sequence of Tyrosine-protein kinase Lck (P06239 whole entry): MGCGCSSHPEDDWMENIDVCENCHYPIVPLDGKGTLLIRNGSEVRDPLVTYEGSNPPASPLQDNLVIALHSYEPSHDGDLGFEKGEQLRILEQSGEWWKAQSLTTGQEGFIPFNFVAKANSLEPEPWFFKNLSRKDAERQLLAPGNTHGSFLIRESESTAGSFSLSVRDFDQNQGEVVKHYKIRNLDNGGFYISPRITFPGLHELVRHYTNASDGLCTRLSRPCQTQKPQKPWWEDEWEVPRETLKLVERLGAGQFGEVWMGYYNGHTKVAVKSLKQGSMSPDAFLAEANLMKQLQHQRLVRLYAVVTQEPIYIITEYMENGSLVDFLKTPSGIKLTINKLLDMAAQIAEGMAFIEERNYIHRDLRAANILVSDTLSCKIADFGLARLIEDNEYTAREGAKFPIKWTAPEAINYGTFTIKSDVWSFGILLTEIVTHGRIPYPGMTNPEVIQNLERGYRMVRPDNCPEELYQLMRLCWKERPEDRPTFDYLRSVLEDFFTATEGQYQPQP

Sequence of Histamine H2 receptor (P25021 whole entry): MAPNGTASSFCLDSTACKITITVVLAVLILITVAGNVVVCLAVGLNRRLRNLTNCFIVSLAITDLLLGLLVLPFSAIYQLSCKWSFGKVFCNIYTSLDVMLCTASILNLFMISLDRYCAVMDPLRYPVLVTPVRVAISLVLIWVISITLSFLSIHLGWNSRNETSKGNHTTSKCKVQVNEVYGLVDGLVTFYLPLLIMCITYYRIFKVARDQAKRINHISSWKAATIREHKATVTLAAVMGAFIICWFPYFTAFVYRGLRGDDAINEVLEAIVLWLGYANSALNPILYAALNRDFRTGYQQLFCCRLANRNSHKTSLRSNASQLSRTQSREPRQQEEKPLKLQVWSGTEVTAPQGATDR

Compound | IC50 ([1]; hek293) | IC50 ([2]; cho) | IC50 (Histamine H2 receptor; cho-k1) | IC50 [3] | IC50 ([4]; insect cells) | further results
CCOc1cc(N)c(Cl)cc1C(=O)NCC1CN(Cc2ccc(F)cc2)CCO1 (stereo not drawn) [MOSAPRIDE] | Not Active | Not Active | Not Active | Not Active | Not Active | –
O=C(c1ccccc1)c1ccc2n1CCC2C(=O)O (stereo not drawn) [KETOROLAC] | Not Active | Not Active | Not Active | Not Active | Not Active | –
Nc1nc(N)c2nc(-c3ccccc3)c(N)nc2n1 | Not Active | Not Active | Not Active | Not Active | Not Active | –
Oc1ccc(/C=C/c2cc(O)cc(O)c2)cc1 [RESVERATROL] | Not Active | Not Active | Not Active | Not Active | Not Active | –
Cc1ccnc(NS(=O)(=O)c2ccc(N)cc2)n1 [SULFAMERAZINE] | Not Active | Not Active | Not Active | Not Active | Not Active | –
CCN1CCCC1CNC(=O)c1cc(S(N)(=O)=O)ccc1OC (stereo not drawn) [SULPIRIDE] | Not Active | Not Active | Not Active | Not Active | Not Active | –
O=C1CC[C@@]2(O)[C@H]3Cc4ccc(O)c5c4[C@@]2(CCN3CC2CC2)[C@H]1O5 [NALTREXONE] | Not Active | Not Active | Not Active | Not Active | Not Active | –
CCN(CC)C(=S)SSC(=S)N(CC)CC | Not Active | Not Active | Not Active | Not Active | Not Active | –
O=C(OC[C@H]1O[C@@H](OC(=O)c2cc(O)c(O)c(OC(=O)c3cc(O)c(O)c(O)c3)c2)[C@H](OC(=O)c2cc(O)c(O)c(OC(=O)c3cc(O)c(O)c(O)c3)c2)[C@@H](OC(=O)c2cc(O)c(O)c(OC(=O)c3cc(O)c(O)c(O)c3)c2)[C@@H]1OC(=O)c1cc(O)c(O)c(OC(=O)c2cc(O)c(O)c(O)c2)c1)c1cc(O)c(O)c(OC(=O)c2cc(O)c(O)c(O)c2)c1 [TANNIC ACID] | Not Active | Not Active | Not Active | Not Active | – | IC50 ([4]; read-out: IC50): 79 nM
C=CCc1ccc2c(c1)OCO2 [SAFROLE] | Not Active | Not Active | Not Active | Not Active | Not Active | –
C#C[C@]1(O)CC[C@H]2[C@@H]3[C@H](C)CC4=C(CCC(=O)C4)[C@H]3CC[C@@]21C [TIBOLONE] | Not Active | Not Active | Not Active | Not Active | Not Active | –
CC[C@@]1(O)C(=O)OCc2c1cc1n(c2=O)Cc2cc3c(CN(C)C)c(O)ccc3nc2-1 [TOPOTECAN] | Not Active | Not Active | Not Active | Not Active | Not Active | –
CC1(C)[C@H](C(=O)O)N2C(=O)C[C@H]2S1(=O)=O [SULBACTAM] | Not Active | Not Active | Not Active | Not Active | Not Active | –
CCN(CC)N=O [N-NITROSODIETHYLAMINE] | Not Active | Not Active | Not Active | Not Active | Not Active | –
C[C@]12CCC(=O)C[C@@H]1CC[C@@H]1[C@@H]2CC[C@]2(C)[C@@H](O)CC[C@@H]12 [STANOLONE] | Not Active | Not Active | Not Active | Not Active | Not Active | –
Cc1cccc(C)c1NC(=O)C(C)N (stereo not drawn) [TOCAINIDE] | Not Active | Not Active | Not Active | Not Active | Not Active | –

Compound | IC50 ([1]; hek293) | IC50 ([2]; cho) | IC50 (Histamine H2 receptor; cho-k1) | IC50 [3] | IC50 ([4]; insect cells) | further results
LEAD(IV) ACETATE | Not Active | Not Active | Not Active | Not Active | Not Active | Ki ([1]; hek293): Not Active; Ki ([2]; cho): Not Active; Ki (Histamine H2 receptor; cho-k1): Not Active; Ki [3]: Not Active; Ki ([4]; insect cells): Not Active
CC#C[C@]1(O)CC[C@H]2[C@@H]3CCC4=CC(=O)CCC4=C3[C@@H](c3ccc(N(C)C)cc3)C[C@@]21C [MIFEPRISTONE] | Not Active | Not Active | Not Active | Not Active | Not Active | –
CS(=O)(=O)c1ccc(C2=C(c3ccccc3)C(=O)OC2)cc1 [ROFECOXIB] | Not Active | Not Active | Not Active | Not Active | Not Active | –
COC(=O)Nc1nc2ccc(C(=O)c3ccccc3)cc2[nH]1 [MEBENDAZOLE] | Not Active | Not Active | Not Active | Not Active | Not Active | –
CC(O)C(=O)O (stereo not drawn) [LACTIC ACID] | Not Active | Not Active | Not Active | Not Active | Not Active | –
CC(N)C12CC3CC(CC(C3)C1)C2 (stereo not drawn) [RIMANTADINE] | Not Active | Not Active | Not Active | Not Active | Not Active | –
CN1C[C@H](CNC(=O)OCc2ccccc2)C[C@@H]2c3cccc4c3c(cn4C)C[C@H]21 [METERGOLINE] | – | Not Active | – | Not Active | Not Active | IC50 ([1]; read-out: IC50): 136 nM; Ki ([1]; read-out: Ki): 67 nM; IC50 (Histamine H2 receptor; read-out: IC50): 975 nM; Ki (Histamine H2 receptor; read-out: Ki): 959 nM
CO[C@@H]1[C@@H](OC)[C@H](C)[C@@](O)(CC(=O)O)O[C@H]1[C@H](C)[C@H]1O[C@@]2(CC[C@@](C)([C@H]3CC[C@@](C)([C@@H]4O[C@@H]([C@H]5O[C@](C)(O)[C@H](C)C[C@@H]5C)C[C@@H]4O[C@@H]4C[C@H](OC)[C@@H](OC)[C@H](C)O4)O3)O2)C[C@H](O)[C@H]1C.N [MADURAMICIN] | Not Active | Not Active | Not Active | Not Active | Not Active | –
CCOC(=O)C1=C(C)NC(C)=C(C(=O)OCC)C1c1ccccc1/C=C/C(=O)OC(C)(C)C [LACIDIPINE] | Not Active | Not Active | Not Active | Not Active | Not Active | –
CC(C)(C)NC[C@H](O)COc1cccc2c1CCCC2=O [LEVOBUNOLOL] | Not Active | – | Not Active | Not Active | Not Active | IC50 ([2]; read-out: IC50): 0.793 nM; Ki ([2]; read-out: Ki): 0.546 nM
Cc1[nH]c(=O)c(C#N)cc1-c1ccncc1 [MILRINONE] | Not Active | Not Active | Not Active | Not Active | Not Active | –
C1CCN2C[C@@H]3C[C@@H](CN4CCCC[C@@H]34)[C@H]2C1 [SPARTEINE] | Not Active | Not Active | Not Active | Not Active | Not Active | –
Cc1cnc(NC(=O)C2=C(O)c3ccccc3S(=O)(=O)N2C)s1 [MELOXICAM] | Not Active | Not Active | Not Active | Not Active | Not Active | –
Cc1cc2c(s1)Nc1ccccc1N=C2N1CCN(C)CC1 [OLANZAPINE] | – | Not Active | Not Active | – | Not Active | –
C[N+]1(C)[C@@H]2C[C@@H](OC(=O)[C@H](CO)c3ccccc3)C[C@H]1[C@@H]1O[C@@H]12.[Br-] [METHSCOPOLAMINE BROMIDE] | Not Active | Not Active | Not Active | – | Not Active | –
CN(C)CCC=C1c2ccccc2COc2ccccc21 [DOXEPIN] | – | – | – | – | – | IC50 ([1]; read-out: IC50): 118 nM; Ki ([1]; read-out: Ki): 58 nM; Ki ([4]; insect cells): Not Active
